Here are results for 20 molecules from patent publication US7479561B2, “4-(2,4-dichloro-5-methoxyphenyl)amino-6-methoxy-7-{[5-substituted-amino)methyl]-3-furyl}-3-quinolinecarbonitriles as kinase inhibitors” (Wyeth, priority 2004, dated 2009).

Several values for one entry are separate records, joined by “and”; a condition that tells them apart may be missing. Equal values may be shown once.

The experiment addresses T1, Recombinant human Src enzyme (Homo sapiens, UniProt P12931).
T1 construct: purchased PanVera P3044
The experiment is described as follows: Src Kinase Assay (LANCE FRET). As to conditions: 100 μM ATP; multiple entries = tested multiple times; read-out: Src enzyme IC50. Type of experiment: biochemical. Here is the method: Recombinant human Src enzyme was obtained from PanVera (P3044). […] Homogeneous fluorescence resonance energy transfer kinase assays were performed using the europium/APC detection format (LANCE, Perkin Elmer). Src enzyme (10 ng) was mixed with biotinylated peptide (final concentration 2 μM), 50 mM Hepes (pH 7.5), 10 mM MgCl2, 20 ug/ml BSA, 0.001% Brij-35 (Sigma), 100 μM ATP, 1% DMSO. The kinase reaction was incubated for 70 min at 37° C. The reaction was stopped with EDTA at a final concentration of 30 mM EDTA/25 mM Hepes (pH 7.5)/10 μg/ml BSA. The mixture was combined with Eu-labeled anti-phosphotyrosine antibody PT66 (Perkin Elmer, AD0068) and Streptavidin Surelight-APC (Perkin Elmer, CR130-100) in 50 mM Hepes (pH 7.5)/20 μg/ml BSA, and incubated for 30 min according to manufacturer's specifications. […] Multiple entries for a given compound indicate that it was tested multiple times.
For orientation: TR-FRET usually uses a lanthanide donor and a delayed reading to cut background.

T1 sequence (P12931 whole entry): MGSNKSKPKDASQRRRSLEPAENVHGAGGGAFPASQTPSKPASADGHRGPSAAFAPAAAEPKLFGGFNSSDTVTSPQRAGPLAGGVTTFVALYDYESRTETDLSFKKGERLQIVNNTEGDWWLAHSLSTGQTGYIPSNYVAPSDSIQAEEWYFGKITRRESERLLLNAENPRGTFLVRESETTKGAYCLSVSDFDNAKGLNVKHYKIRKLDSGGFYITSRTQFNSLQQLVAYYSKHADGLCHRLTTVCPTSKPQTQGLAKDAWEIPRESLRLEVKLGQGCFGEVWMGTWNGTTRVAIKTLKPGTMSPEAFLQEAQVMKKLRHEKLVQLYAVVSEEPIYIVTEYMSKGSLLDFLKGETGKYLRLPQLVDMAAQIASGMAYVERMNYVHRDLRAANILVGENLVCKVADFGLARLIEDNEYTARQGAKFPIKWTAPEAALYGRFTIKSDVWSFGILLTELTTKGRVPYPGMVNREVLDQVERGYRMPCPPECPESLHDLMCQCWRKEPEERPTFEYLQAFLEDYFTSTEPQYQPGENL

On to `COc1cc(Nc2c(C#N)cnc3cc(-c4coc(CN5CCS(=O)(=O)CC5)c4)c(OC)cc23)c(Cl)cc1Cl` [Example 17, 4-[(2,4-dichloro-5-methoxyphenyl)amino]-7-{5-[(1,1-dioxidothiomorpholin-4-yl)methyl]-3-furyl}-6-methoxyquinoline-3-carbonitrile], for which the 50% inhibitory concentration (IC50) is 2.4 nM and 2.1 nM.

For `COCCN(C)Cc1cc(-c2cc3ncc(C#N)c(Nc4cc(OC)c(Cl)cc4Cl)c3cc2OC)co1` [Example 32, 4-[(2,4-dichloro-5-methoxyphenyl)amino]-6-methoxy-7-(5-{[(2-methoxyethyl)(methyl)amino]methyl}-3-furyl)quinoline-3-carbonitrile], the 50% inhibitory concentration (IC50) was 2.9 nM and 2.6 nM. As to `COc1cc(Nc2c(C#N)cnc3cc(-c4coc(CN5CCN(C6CCCCC6)CC5)c4)c(OC)cc23)c(Cl)cc1Cl` [Example 19, 7-{5-[(4-cyclohexylpiperazin-1-yl)methyl]-3-furyl}-4-[(2,4-dichloro-5-methoxyphenyl)amino]-6-methoxyquinoline-3-carbonitrile], the 50% inhibitory concentration (IC50) was 3.6 nM and 2.8 nM. In the case of `COc1cc(Nc2c(C#N)cnc3cc(-c4coc(CN5CCN(CCN6CCOCC6)CC5)c4)c(OC)cc23)c(Cl)cc1Cl` [Example 13, 4-[(2,4-dichloro-5-methoxyphenyl)amino]-6-methoxy-7-(5-{[4-(2-morpholin-4-ylethyl)piperazin-1-yl]methyl}-3-furyl)quinoline-3-carbonitrile] it was 1 nM; in that of `COc1cc(Nc2c(C#N)cnc3cc(-c4coc(CN5CCCC5)c4)c(OC)cc23)c(Cl)cc1Cl` [Example 6, 4-[(2,4-dichloro-5-methoxyphenyl)amino]-6-methoxy-7-[5-(pyrrolidin-1-ylmethyl)-3-furyl]quinoline-3-carbonitrile], 0.8 nM and 0.9 nM. With `COc1cc(Nc2c(C#N)cnc3cc(-c4coc(CN5CC[S+]([O-])CC5)c4)c(OC)cc23)c(Cl)cc1Cl` [Example 18, 4-[(2,4-dichloro-5-methoxyphenyl)amino]-6-methoxy-7-{5-[(1-oxidothiomorpholin-4-yl)methyl]-3-furyl}quinoline-3-carbonitrile] the figure was 1.5 nM and 2.4 nM; with `COc1cc(Nc2c(C#N)cnc3cc(-c4coc(CN5CCCN(C)CC5)c4)c(OC)cc23)c(Cl)cc1Cl` [Example 29, 4-[(2,4-dichloro-5-methoxyphenyl)amino]-6-methoxy-7-{5-[(4-methyl-1,4-diazepan-1-yl)methyl]-3-furyl}quinoline-3-carbonitrile], 1.3 nM and 1 nM. As to `COc1cc(Nc2c(C#N)cnc3cc(-c4coc(CN5CCN(c6ccc(C(F)(F)F)cc6)CC5)c4)c(OC)cc23)c(Cl)cc1Cl` [Example 25, 4-[(2,4-dichloro-5-methoxyphenyl)amino]-6-methoxy-7-[5-({4-[4-(trifluoromethyl)phenyl]piperazin-1-yl}methyl)-3-furyl]quinoline-3-carbonitrile], the IC50 is 14.1 nM and 14.4 nM. Consider `COc1cc(Nc2c(C#N)cnc3cc(-c4coc(CN5CCN(C(C)C)CC5)c4)c(OC)cc23)c(Cl)cc1Cl` [Example 28, 4-[(2,4-dichloro-5-methoxyphenyl)amino]-7-{5-[(4-isopropylpiperazin-1-yl)methyl]-3-furyl}-6-methoxyquinoline-3-carbonitrile], for which the IC50 was 1 nM and 0.7 nM. For `COc1cc(Nc2c(C#N)cnc3cc(-c4coc(CN5CCSCC5)c4)c(OC)cc23)c(Cl)cc1Cl` [Example 26, 4-[(2,4-dichloro-5-methoxyphenyl)amino]-6-methoxy-7-[5-(thiomorpholin-4-ylmethyl)-3-furyl]quinoline-3-carbonitrile], the IC50 was 9.1 nM and 7.8 nM. With `COc1cc(Nc2c(C#N)cnc3cc(-c4coc(CN5CCN(Cc6ccccc6)CC5)c4)c(OC)cc23)c(Cl)cc1Cl` [Example 14, 7-{5-[(4-benzylpiperazin-1-yl)methyl]-3-furyl}-4-[(2,4-dichloro-5-methoxyphenyl)amino]-6-methoxyquinoline-3-carbonitrile] the figure was 33.7 nM and 56.2 nM; with `COc1cc(Nc2c(C#N)cnc3cc(-c4coc(CN5CCN(CCO)CC5)c4)c(OC)cc23)c(Cl)cc1Cl` [Example 31, 4-[(2,4-dichloro-5-methoxyphenyl)amino]-7-(5-{[4-(2-hydroxyethyl)piperazin-1-yl]methyl}-3-furyl)-6-methoxyquinoline-3-carbonitrile], 1.9 nM and 1.8 nM. Consider `COc1cc(Nc2c(C#N)cnc3cc(-c4coc(CN5CCN(CCc6ccccc6)CC5)c4)c(OC)cc23)c(Cl)cc1Cl` [Example 15, 4-[(2,4-dichloro-5-methoxyphenyl)amino]-6-methoxy-7-(5-{[4-(2-phenylethyl)piperazin-1-yl]methyl}-3-furyl)quinoline-3-carbonitrile], for which the IC50 is 18.3 nM and 13.3 nM. Turning to `COc1cc(Nc2c(C#N)cnc3cc(-c4coc(CN5CCN(c6ccc(C)cc6)CC5)c4)c(OC)cc23)c(Cl)cc1Cl` [Example 22, 4-[(2,4-dichloro-5-methoxyphenyl)amino]-6-methoxy-7-(5-{[4-(4-methylphenyl)piperazin-1-yl]methyl}-3-furyl)quinoline-3-carbonitrile], the IC50 is 12.8 nM and 14.3 nM.

Take `COc1ccc(N2CCN(Cc3cc(-c4cc5ncc(C#N)c(Nc6cc(OC)c(Cl)cc6Cl)c5cc4OC)co3)CC2)cc1` [Example 20, 4-[(2,4-dichloro-5-methoxyphenyl)amino]-6-methoxy-7-(5-{[4-(4-methoxyphenyl)piperazin-1-yl]methyl}-3-furyl)quinoline-3-carbonitrile]: the IC50 was 10 nM and 11.7 nM.

Regarding `COc1cc(Nc2c(C#N)cnc3cc(-c4coc(CN5CCN(Cc6ccncc6)CC5)c4)c(OC)cc23)c(Cl)cc1Cl` [Example 34, 4-[(2,4-dichloro-5-methoxyphenyl)amino]-6-methoxy-7-(5-{[4-(pyridin-4-ylmethyl)piperazin-1-yl]methyl}-3-furyl)quinoline-3-carbonitrile], the IC50 is 2.5 nM and 3 nM. On to `COc1cc(Nc2c(C#N)cnc3cc(-c4coc(CN5CCN(C6CCN(C)CC6)CC5)c4)c(OC)cc23)c(Cl)cc1Cl` [Example 10, 4-[(2,4-dichloro-5-methoxyphenyl)amino]-6-methoxy-7-(5-{[4-(1-methylpiperidin-4-yl)piperazin-1-yl]methyl}-3-furyl)quinoline-3-carbonitrile], for which the IC50 stood at 0.5 nM.

As to `CCCCN1CCN(Cc2cc(-c3cc4ncc(C#N)c(Nc5cc(OC)c(Cl)cc5Cl)c4cc3OC)co2)CC1` [Example 12, 7-{5-[(4-butylpiperazin-1-yl)methyl]-3-furyl}-4-[(2,4-dichloro-5-methoxyphenyl)amino]-6-methoxyquinoline-3-carbonitrile], the IC50 was 2.5 nM and 2.1 nM.

In the case of `COc1cc(Nc2c(C#N)cnc3cc(-c4coc(CN5CCN(c6ccncc6)CC5)c4)c(OC)cc23)c(Cl)cc1Cl` [Example 21, 4-[(2,4-dichloro-5-methoxyphenyl)amino]-6-methoxy-7-[5-[(4-pyridin-4-ylpiperazin-1-yl)methyl]-3-furyl}quinoline-3-carbonitrile], the 50% inhibitory concentration (IC50) was 2.2 nM and 1.9 nM. With `COc1cc(Nc2c(C#N)cnc3cc(-c4coc(CN5CCN(c6c(C)cccc6C)CC5)c4)c(OC)cc23)c(Cl)cc1Cl` [Example 35, 4-[(2,4-dichloro-5-methoxyphenyl)amino]-7-(5-{[4-(2,6-dimethylphenyl)piperazin-1-yl]methyl}-3-furyl)-6-methoxyquinoline-3-carbonitrile] the figure was 3.2 nM and 5.6 nM.

Broadly, the IC50 is the midpoint of a concentration-inhibition curve.
